Results reported in ChEMBL document CHEMBL4765284, “Optimization of 5-substituted thiazolyl ureas and 6-substituted imidazopyridines as potential HIV-1 latency reversing agents” (Eur J Med Chem, 2020).
Converted amounts (≈) assume the structure as drawn.

Columns and labels:
[1] = Aqueous solubility of compound at pH 6.5 by nephelometry; type: physicochemical
[2] = Metabolic stability in mouse liver microsomes assessed as intrinsic clearance at 1 uM measured upto 60 mins by LC-MS anlaysis; type: ADME, Microsome; settings: read-out: CLH
[3] = system: Cytomegalovirus; assay: Antiviral activity against CMV infected in FlpIn-HEK293 cells assessed as click beetle green reporter driven gene expression incubated for 72 hrs by luciferase based cellular assay; type: functional, organism-based; settings: HEK293, 72 h
[4] = system: Human immunodeficiency virus 1; assay: Antiviral activity against HIV-1 infected in J-Lat 10.6 cells assessed as maximal activation of long terminal repeat driven gene expression at 0.13 uM incubated for 48 hrs by green fluorescent protein based cellular assay relative to control; type: functional
[5] = system: Human immunodeficiency virus 1; assay: Antiviral activity against HIV-1 infected in FlpIn-HEK293 cells assessed as activation of long terminal repeat driven gene expression incubated for 72 hrs by luciferase based cellular assay; type: functional, organism-based; settings: Human immunodeficiency virus 1, HEK293, 72 h
[6] = Metabolic stability in human liver microsomes assessed as half life at 1 uM measured upto 60 mins by LC-MS anlaysis; type: ADME, Microsome
[7] = Aqueous solubility of compound at pH 2 by nephelometry; type: physicochemical
[8] = target: T1, Cyclin-K (Homo sapiens) (UniProt O75909); assay: Inhibition of cyclin K (unknown origin) at 0.5 uM
T1 sequence (whole entry): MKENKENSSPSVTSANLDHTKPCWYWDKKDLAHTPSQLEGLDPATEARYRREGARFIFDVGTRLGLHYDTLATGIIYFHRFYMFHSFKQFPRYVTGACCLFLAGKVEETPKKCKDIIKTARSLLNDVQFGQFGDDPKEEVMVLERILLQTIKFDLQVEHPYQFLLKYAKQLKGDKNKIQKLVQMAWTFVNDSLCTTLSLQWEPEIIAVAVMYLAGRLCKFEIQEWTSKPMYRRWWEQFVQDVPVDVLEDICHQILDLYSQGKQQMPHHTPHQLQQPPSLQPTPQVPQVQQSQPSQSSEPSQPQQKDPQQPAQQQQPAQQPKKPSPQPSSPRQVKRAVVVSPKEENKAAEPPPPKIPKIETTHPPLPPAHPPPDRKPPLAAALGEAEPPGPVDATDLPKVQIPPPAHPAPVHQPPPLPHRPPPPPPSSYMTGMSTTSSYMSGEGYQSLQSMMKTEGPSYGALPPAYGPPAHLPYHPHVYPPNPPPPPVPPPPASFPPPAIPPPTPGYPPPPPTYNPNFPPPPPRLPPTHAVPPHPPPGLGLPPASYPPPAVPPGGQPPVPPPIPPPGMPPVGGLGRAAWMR

[9] = target: Cyclin-T2 (Homo sapiens) (UniProt O60583); assay: Inhibition of cyclin T2 (unknown origin) at 0.5 uM
Sequence of Cyclin-T2 (Homo sapiens) (O60583 whole entry): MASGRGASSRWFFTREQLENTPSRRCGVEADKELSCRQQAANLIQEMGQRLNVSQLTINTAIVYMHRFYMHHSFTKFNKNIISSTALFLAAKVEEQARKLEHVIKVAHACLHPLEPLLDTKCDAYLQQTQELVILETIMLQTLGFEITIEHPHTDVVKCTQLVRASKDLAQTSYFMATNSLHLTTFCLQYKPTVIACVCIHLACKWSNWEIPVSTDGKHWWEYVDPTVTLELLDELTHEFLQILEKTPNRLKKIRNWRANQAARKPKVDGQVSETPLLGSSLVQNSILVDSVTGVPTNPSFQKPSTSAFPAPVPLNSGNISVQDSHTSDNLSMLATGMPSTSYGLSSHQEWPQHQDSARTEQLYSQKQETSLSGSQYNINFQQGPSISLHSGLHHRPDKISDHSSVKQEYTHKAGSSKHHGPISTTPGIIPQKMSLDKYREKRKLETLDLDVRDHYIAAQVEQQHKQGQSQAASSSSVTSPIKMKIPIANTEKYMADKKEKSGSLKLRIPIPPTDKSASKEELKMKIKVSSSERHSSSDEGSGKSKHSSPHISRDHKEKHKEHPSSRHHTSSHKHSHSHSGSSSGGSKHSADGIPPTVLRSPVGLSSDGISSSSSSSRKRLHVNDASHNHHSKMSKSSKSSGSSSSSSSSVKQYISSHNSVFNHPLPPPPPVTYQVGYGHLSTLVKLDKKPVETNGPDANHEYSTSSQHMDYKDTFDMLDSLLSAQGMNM

[10] = system: Human immunodeficiency virus 1; assay: Antiviral activity against HIV-1 infected in FlpIn-HEK293 cells assessed as maximal activation of long terminal repeat driven gene expression at 0.13 uM incubated for 48 hrs by luciferase based cellular assay relative to control; type: functional
[11] = Metabolic stability in human liver microsomes assessed as intrinsic clearance at 1 uM measured upto 60 mins by LC-MS analysis; type: ADME, Microsome; settings: read-out: CLH
[12] = target: Cyclin-T1 (Homo sapiens) (UniProt O60563); assay: Inhibition of cyclin T1 (unknown origin) at 0.5 uM
Sequence of Cyclin-T1 (Homo sapiens) (O60563 whole entry): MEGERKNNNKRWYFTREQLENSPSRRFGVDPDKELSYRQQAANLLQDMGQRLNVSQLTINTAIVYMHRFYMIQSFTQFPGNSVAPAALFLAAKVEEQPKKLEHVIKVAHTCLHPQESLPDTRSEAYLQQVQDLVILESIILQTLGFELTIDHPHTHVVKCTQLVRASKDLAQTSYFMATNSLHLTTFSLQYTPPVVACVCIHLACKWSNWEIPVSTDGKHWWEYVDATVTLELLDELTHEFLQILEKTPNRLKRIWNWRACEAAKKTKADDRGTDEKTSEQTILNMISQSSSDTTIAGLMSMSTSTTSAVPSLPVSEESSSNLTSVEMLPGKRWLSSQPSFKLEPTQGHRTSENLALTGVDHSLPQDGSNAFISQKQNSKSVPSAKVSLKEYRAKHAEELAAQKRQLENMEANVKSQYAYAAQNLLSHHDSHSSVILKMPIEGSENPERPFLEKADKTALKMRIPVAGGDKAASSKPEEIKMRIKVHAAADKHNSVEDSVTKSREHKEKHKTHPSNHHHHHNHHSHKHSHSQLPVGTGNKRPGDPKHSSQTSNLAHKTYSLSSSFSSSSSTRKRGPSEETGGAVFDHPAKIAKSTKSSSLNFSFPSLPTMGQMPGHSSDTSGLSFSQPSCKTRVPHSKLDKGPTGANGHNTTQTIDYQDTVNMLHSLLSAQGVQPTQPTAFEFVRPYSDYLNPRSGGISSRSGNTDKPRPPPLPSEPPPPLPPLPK

[13] = target: Cyclin-dependent kinase 9 (Homo sapiens) (UniProt P50750); assay: Inhibition of CDK9 (unknown origin) at 0.5 uM
Sequence of Cyclin-dependent kinase 9 (Homo sapiens) (P50750 whole entry): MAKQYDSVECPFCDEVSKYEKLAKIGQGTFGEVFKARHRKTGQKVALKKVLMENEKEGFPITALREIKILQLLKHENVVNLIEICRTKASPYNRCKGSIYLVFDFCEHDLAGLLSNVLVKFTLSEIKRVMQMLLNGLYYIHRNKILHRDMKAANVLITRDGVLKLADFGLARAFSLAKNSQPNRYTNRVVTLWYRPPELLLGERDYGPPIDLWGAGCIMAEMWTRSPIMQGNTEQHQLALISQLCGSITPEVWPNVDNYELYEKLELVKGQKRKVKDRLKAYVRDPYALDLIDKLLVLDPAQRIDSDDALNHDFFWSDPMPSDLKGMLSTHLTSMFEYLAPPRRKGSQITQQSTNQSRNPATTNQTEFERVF

[14] = Cytotoxicity against human HepG2 cells assessed as growth incubation incubated for 48 hrs by cell titer glo assay; type: cell-based
[15] = Metabolic stability in mouse liver microsomes assessed as half life at 1 uM measured upto 60 mins by LC-MS anlaysis; type: ADME, Microsome
[16] = system: Human immunodeficiency virus 1; assay: Antiviral activity against HIV-1 infected in J-Lat 10.6 cells assessed as maximal activation of long terminal repeat driven gene expression incubated for 48 hrs by green fluorescent protein based cellular assay; type: functional, organism-based; settings: Human immunodeficiency virus 1, J-Lat 10.6, 48 h
[17] = system: Human immunodeficiency virus 1; assay: Antiviral activity against HIV-1 infected in J-Lat 10.6 cells assessed as maximal activation of long terminal repeat driven gene expression at 20 uM incubated for 48 hrs by green fluorescent protein based cellular assay relative to control; type: functional
[18] = system: Human immunodeficiency virus 1; assay: Antiviral activity against HIV-1 infected in FlpIn-HEK293 cells assessed as maximal activation of long terminal repeat driven gene expression at 1.3 uM incubated for 48 hrs by luciferase based cellular assay relative to control; type: functional
[19] = system: Human immunodeficiency virus 1; assay: Antiviral activity against HIV-1 infected in FlpIn-HEK293 cells assessed as maximal activation of long terminal repeat driven gene expression at 0.09 uM incubated for 48 hrs by luciferase based cellular assay relative to control; type: functional
[20] = system: Human immunodeficiency virus 1; assay: Antiviral activity against HIV-1 infected in J-Lat 10.6 cells assessed as maximal activation of long terminal repeat driven gene expression at 0.06 uM incubated for 48 hrs by green fluorescent protein based cellular assay relative to control; type: functional

| solubility kinetic [1] | microsomal CLint at 1 µM [2] | EC50 [3] | EC50 [5] | half-life at 1 µM [6] | solubility kinetic [7] | inhibition [8] | inhibition [9] | microsomal CLint at 1 µM [11] | inhibition [12] | inhibition [13] | half-life at 1 µM [15] | EC50 [16] | Structure (SMILES) | %max [4] | %max [10] | CC50 at 48 h [14] | %max [17] | %max [18] | %max [19] | %max [20] |
| --- | --- | --- | --- | --- | --- | --- | --- | --- | --- | --- | --- | --- | --- | --- | --- | --- | --- | --- | --- | --- |
| < 1.6 µM | 32 µL/min/mg | 70 nM | 80 nM | 70 min | < 1.6 µM | 60% | 60% | 25 µL/min/mg | 60% | 60% | 55 min | 290 nM | O=C(Nc1ncc(Cl)s1)N1CCN(c2cnc(Cl)c(Cl)c2)CC1 | 26% | 65% | 40 nM | – | – | – | – |
| – | – | – | – | – | – | – | – | – | – | – | – | 29000 nM | Cc1cc(OCCCC(=O)Nc2ncc(Cl)s2)ccc1Cl | – | – | – | 15% | 39% | – | – |
| 1.6 µM (≈ 0.614 µg/mL) | 132 µL/min/mg | 27000 nM | 80 nM | – | 25 µM (≈ 9.59 µg/mL) | – | – | – | – | – | 13 min | 24000 nM | Clc1cnc2[nH]c(N3CCN(c4cnc(Cl)c(Cl)c4)CC3)nc2c1 | – | – | 40 nM | – | – | 57% | 28% |
